Source: patent US11324725B2, “Compositions and methods for the inhibition of pruritus” (The United States of America, as represented by the …, priority 2017, dated 2022)
Entries after “also recorded” stand apart in the source; their conditions may differ. Where a SMILES comes first, the peptide text is derived from it. Bridges are numbered along the chain shown (N, C = ends). [ ]: non-standard residue; d: D form. dTic = O=C(O)[C@H]1Cc2ccccc2CN1; Cha = N[C@@H](CC1CCCCC1)C(=O)O

Key:
hNpr1 = biological target: T1, hNpr1 (Homo sapiens, UniProt P16066); assay: GloSensor assay in 96-well format, HEK-hNpr1-cGMP-sensor cells; assay type: cell-based; conditions: 5 μM antagonist, increasing hNppa; GloSensor and membrane cyclase assays (FIGS. 5B-C)
T1 sequence (P16066 33-1061): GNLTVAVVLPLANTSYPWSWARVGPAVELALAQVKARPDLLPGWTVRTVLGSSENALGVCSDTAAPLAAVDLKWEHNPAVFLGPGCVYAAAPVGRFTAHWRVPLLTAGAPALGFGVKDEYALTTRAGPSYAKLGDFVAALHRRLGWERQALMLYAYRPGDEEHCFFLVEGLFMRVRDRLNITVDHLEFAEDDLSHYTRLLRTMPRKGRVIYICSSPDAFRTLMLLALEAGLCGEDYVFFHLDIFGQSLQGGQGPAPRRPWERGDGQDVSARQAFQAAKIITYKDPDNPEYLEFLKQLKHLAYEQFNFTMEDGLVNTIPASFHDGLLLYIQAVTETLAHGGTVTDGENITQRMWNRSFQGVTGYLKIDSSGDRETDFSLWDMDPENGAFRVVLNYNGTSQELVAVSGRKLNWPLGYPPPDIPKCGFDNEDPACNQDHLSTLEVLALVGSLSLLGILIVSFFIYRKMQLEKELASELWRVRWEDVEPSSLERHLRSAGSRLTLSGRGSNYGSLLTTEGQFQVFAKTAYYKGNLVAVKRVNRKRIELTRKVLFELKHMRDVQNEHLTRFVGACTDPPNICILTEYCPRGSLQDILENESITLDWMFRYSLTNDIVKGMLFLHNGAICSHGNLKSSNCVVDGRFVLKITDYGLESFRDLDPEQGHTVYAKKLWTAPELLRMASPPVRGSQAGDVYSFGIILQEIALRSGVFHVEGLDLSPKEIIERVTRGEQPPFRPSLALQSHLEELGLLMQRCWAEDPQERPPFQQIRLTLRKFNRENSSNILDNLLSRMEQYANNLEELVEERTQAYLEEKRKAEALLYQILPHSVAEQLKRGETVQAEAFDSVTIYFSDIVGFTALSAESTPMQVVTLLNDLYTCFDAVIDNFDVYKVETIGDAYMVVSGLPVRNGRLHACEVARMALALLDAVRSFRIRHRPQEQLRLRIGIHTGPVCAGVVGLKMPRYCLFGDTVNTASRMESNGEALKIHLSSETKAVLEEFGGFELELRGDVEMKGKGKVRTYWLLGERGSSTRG
Description: (§1) Before the measurement (24 hours in advance), 3×10^4 cells were seeded into white 96-well plates (PerkinElmer, Waltham, Mass.), coated with 0.1% poly(D-lysine), and assays conducted as recommended by the manufacturer (Promega). Medium was aspirated and cells were loaded for two hours at room temperature with 2% GoSensor™ reagent diluted in CO2-independent media (ThermoFisher) supplemented with 2 mM L-glutamine and 10% FBS (assay medium). Luminescence was measured on a BioTek Synergy™ NEO (Winooski, Vt.) plate reader at room temperature. After a baseline measurement of 3-5 minutes, assay medium as a control or assay medium with agonist was manually added, and luminescence was measured for 30 minutes at ˜ 1/60 Hz. For compounds tested for Npr1 and Npr2 inhibition, the compounds were added after baseline measurements, and luminescence was read for 5 minutes before addition of agonist. Luminescence was then normalized to baseline measurements and plotted against the time. Ligand-induced changes of cGMP production were quantified by determining the area under the curve. To determine efficacy and potency of agonists, ligand-induced changes were normalized to medium only addition and plotted against the ligand concentration. […] To quantify […] of compounds, compound-induced changes of agonist-induced cGMP production were normalized to vehicle controls, plotted against compound concentration, and fit with a four-parameter logistic regression. Effects of A-71915 on basal mNpr1 activity were fitted with a bell-shaped regression (equation indicated below).
Additional screens of the fifteen candidates corroborated hNpr1 inhibition. In particular, HEK-hNpr1-cGMP-sensor cells were seeded in 96-wells and stimulated with 60 pM hNppa 5 minutes after addition of candidate compounds or A-71915 and luminescence was measured for 30 minutes. Inhibitors were titrated to calculate apparent potency (IC50) and efficacy (Imax) of inhibition of hNppa-induced cGMP production.

mNpr1 = biological target: T2, mNpr1 (Mus musculus, UniProt P18293); assay: GloSensor assay, HEK-293 cells transiently expressing mNpr1 and pGS-40F; assay type: cell-based; conditions: no agonist
T2 construct: host or cells: HEK-293, transient co-transfection with pGS-40F
T2 sequence (P18293 29-1057): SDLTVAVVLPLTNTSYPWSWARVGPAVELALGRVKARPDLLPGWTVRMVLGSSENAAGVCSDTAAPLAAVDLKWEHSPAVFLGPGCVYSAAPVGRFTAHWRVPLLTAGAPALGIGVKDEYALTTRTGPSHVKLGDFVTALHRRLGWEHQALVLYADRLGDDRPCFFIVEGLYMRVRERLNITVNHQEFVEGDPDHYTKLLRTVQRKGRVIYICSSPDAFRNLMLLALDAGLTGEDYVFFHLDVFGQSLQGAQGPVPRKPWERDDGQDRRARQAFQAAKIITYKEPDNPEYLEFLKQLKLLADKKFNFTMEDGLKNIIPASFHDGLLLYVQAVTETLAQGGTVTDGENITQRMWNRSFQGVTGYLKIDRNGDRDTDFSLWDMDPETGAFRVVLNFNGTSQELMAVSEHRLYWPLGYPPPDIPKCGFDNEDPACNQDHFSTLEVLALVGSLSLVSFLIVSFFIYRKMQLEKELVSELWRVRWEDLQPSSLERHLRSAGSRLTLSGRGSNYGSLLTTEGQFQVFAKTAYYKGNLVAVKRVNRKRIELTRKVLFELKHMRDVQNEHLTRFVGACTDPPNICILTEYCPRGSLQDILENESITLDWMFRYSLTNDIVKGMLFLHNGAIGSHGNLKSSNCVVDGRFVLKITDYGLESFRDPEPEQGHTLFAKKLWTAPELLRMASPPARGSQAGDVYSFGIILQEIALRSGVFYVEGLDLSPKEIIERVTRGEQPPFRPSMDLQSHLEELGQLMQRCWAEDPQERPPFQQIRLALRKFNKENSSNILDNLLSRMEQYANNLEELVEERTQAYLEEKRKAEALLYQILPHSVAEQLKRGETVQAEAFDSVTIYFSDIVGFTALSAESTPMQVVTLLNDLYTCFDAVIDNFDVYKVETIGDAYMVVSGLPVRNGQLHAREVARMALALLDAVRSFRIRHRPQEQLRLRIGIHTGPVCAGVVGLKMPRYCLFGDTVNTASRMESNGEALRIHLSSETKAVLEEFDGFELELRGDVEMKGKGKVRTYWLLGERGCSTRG
Description: HEK-293 cells (American Type Culture Collection “ATTC,” Manassas, Va.) were cultured in DMEM/F12 supplemented with 2 mM L-glutamine, 10% FBS, 100 U/ml penicillin, and 100 μg/ml streptomycin. For transient expression, 8×10^5 cells were seeded in 6-wells, cultured for 24 hours, and then transfected using TransIT®-293 (Mirus, Madison, Wis.) according to the manufacturer's instructions. After transfection (48 hours), cells were used to measure intracellular cGMP production. HEK-293 cell clones stably expressing pGloSensor™-40F alone (HEK-cGMP-sensor cells) or in addition, human Npr1 (“hNpr1”) (HEK-hNpr1-cGMP-sensor cells) or human Npr2 (HEK-hNpr2-cGMP-sensor cells) were generated by co-transfection with pEAK8-GFP and selection with 1 μg/ml puromycin. Stable expression of transgenes was verified by measuring ligand-induced cGMP production with the cGMP biosensor.
as §1
Because the Npr1 receptor is a ligand-dependent guanylate cyclase, measuring agonist-induced changes in intracellular cGMP levels was used to examine inhibition of Npr1. To measure the production of cGMP by Npr1, a circular permutated Firefly luciferase molecule which was functionally linked to the cGMP binding domain of human PDE5 (GloSensor™ technology pGS-40F) was used, as described in Example 1. This reporter molecule together with a luciferase substrate (GoSensor™ reagent) and a sensitive method for detection of luciferase activity (emitted light) permitted real-time measurement of cGMP levels in live cells (FIG. 1A). The cGMP sensor was expressed in HEK293 cells and luciferase activity after stimulation with the NO-donor sodium nitroprusside (SNP), which activates ubiquitously expressed soluble guanylate cyclases, was examined. […] Next, mNpr1 and the cGMP sensor were transiently expressed in HEK293 cells and agonist dependent receptor activation was examined. […] Next, the effects of A-71915 on mNpr1 were tested.
For Table 6, HEK-293 cells transiently expressing mNpr1 and pGS-40F were stimulated with 1 nM mNppb 5 minutes after addition of candidate compounds or A-71915 and luminescence was measured for 30 minutes. Inhibitors were titrated to calculate apparent IC50 values, as described in methods.

mice = conditions: reported; cited from earlier work

Molecule	Effect on hNppa concentration-response at fixed antagonist concentration (hNpr1)	Effect on basal mNpr1 activity in the absence of natriuretic peptides (mNpr1)	Block of acute itch responses elicited by intradermal pruritogens (mice)
1-cyclohexyl-3-(cyclopropylmethyl)-N-((3-methylisoxazol-5-yl)methyl)-2-oxo-2,3-dihydro-1H-benzo[d]imidazole-5-carboxamide [JS-11]	reduced maximal responses even at extremely high hNppa concentrations		
CC[C@H](C)[C@@H]1NC(=O)[C@H](CCCNC(=N)N)NC(=O)CNC(=O)CNC(=O)[C@H](CC2CCCCC2)NC(=O)[C@@H](NC(=O)[C@@H](N)CCCNC(=N)N)CSSC[C@@H](C(N)=O)NC(=O)[C@H](CCCNC(=N)N)NC(=O)[C@H]2Cc3ccccc3CN2C(=O)[C@H]([C@@H](C)CC)NC(=O)[C@H](CCCNC(=N)N)NC(=O)[C@H](CC(=O)O)NC1=O [Compound A-71915, reference compound] (H-RC[Cha]GGRIDRI[dTic]RC-NH2; disulfide 2-13; N-terminus and C-terminus assumed)	right-shift in hNppA potency without any effect on maximal efficacy	partial agonist; also recorded: directly stimulates basal mNpr1 activity	does not block acute itch responses
